Reference: EPA's ToxValDB 9.5 (doi:10.2903/j.efsa.2007.111r)
In brackets after ≈: the same amount, converted by molar mass.

Experiments:
Bibionidae = settings: chronic/long-term; duration: 25 days; development
Colinus virginianus = settings: acute; oral; mortality
Daphnia magna = settings: chronic/long-term; duration: 21 days; reproduction
Tagia sp. = settings: acute; duration: 14 days; mortality
Apis mellifera = settings: acute; duration: 48 hours; dermal; mortality

Work on `CCCN(CCC)C(=O)SCc1ccccc1` [Prosulfocarb] yielded an LC50 (Oncorhynchus mykiss; acute, duration: 96 hours, mortality) of 0.84 µg/mL (≈ 3.34 µM), an NOEC (Oncorhynchus mykiss; chronic/long-term, duration: 21 days, other) of 0.31 mg/L and an NOEL (Anas platyrhynchos; reproductive) of 131 mg/kg-day. For the same compound, the LD50 (Anas platyrhynchos; short-term, oral, feed, mortality) was > 1510 mg/kg-day, the NOEC (Bibionidae) was 1.25 mg/L and the LD50 (Rattus norvegicus; acute, oral, mortality) was 1820 mg/kg-day. The NOAEL (Rattus norvegicus; chronic, duration: 2 years, oral, body weight) was 0.5 mg/kg-day, the NOAEL (Rattus norvegicus; reproduction developmental, body weight) was 0.5 mg/kg-day and the NOAEL (Rattus norvegicus; reproduction developmental, clinical signs) was 10 mg/kg-day. The NOAEL (Rattus norvegicus; reproduction developmental, reproduction) was > 50 mg/kg-day, the NOAEL (Rattus norvegicus; subchronic, duration: 90 days, oral, body weight) was 1 mg/kg-day and the LD50 (Colinus virginianus) was > 2250 mg/kg-day. For the same compound, the NOEC (Daphnia magna) was 0.045 mg/L, the LC50 (Tagia sp.) was 144 mg/kg and the LD50 (Apis mellifera) was > 80 µg/piece.
